Earlier results, collected in US6432966B1, “Antiviral combinations” (SmithKline Beecham Corporation, priority 1999, dated 2002).

Key:
HBV [1] = test system: HBV
HBV [2] = conditions: in vitro
Hepatitis B virus = conditions: oral, woodchucks

In the case of `Nc1ccn([C@@H]2CS[C@H](CO)O2)c(=O)n1` (relative stereo) [lamivudine, (2R,cis)-4-amino-1-(2-hydroxymethyl-1,3-oxathiolan-5-yl)-pyrimidin-2-one], the “patients maintaining undetectable levels of virus” value (HBV [1]; through to the end of the second year) is given as 52% and the “levels of viral replication in patients” value (HBV [1]; two year study) is given as “most patients showed substantially reduced levels of viral replication”.

In the case of `C=C1[C@H](CO)[C@@H](O)C[C@@H]1n1cnc2c(=O)[nH]c(N)nc21` [BMS-200475], the anti-HBV activity (HBV [2]) is given as “anti-HBV activity in vitro” and the “efficacy against Hepatitis B virus” value (Hepatitis B virus) is given as “effective against Hepatitis B virus in woodchucks”.
